According to PubChem BioAssay (NCI):
Where “and” joins values, the source holds several entries; their conditions need not be identical. Identical values can stand only once.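 Cells were grown in 96-well plates and exposed to each compound for 48 hours at five concentrations; endpoints were interpolated linearly between bracketing concentrations, or set to the highest concentration if not reached. GI50: concentration for 50% inhibition of growth. TGI is the concentration that stops growth completely.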

The compounds below were run on SW-620 colon (assay: NCI tumour cell line growth inhibition, 48 h).

Row | SMILES | GI50 [nM] | TGI [µM]
1 | CCCCC#CC1=C(Br)C(=O)OC1 | 23.7 | 0.21
2 | Cc1ccc(SC2c3ccc(C)cc3Oc3nc(N)c(C#N)c(N)c32)cc1 (stereo unspecified) | 1840 | 3.84
3 | Cc1cn2c(=O)c3ncn(C4OC(CO)C(O)C4O)c3n(C)c2n1 (stereo unspecified) | – | > 100
4 | O=C(Nc1ccc(Br)cc1F)c1cc(F)ccc1O | 805 | 15.4
5 | CC/C=C\C[C@H](O)C/C=C1/C(=O)C(Cl)=C[C@@H]1C/C=C\CCCC(=O)OC | 318 | 1.29
6 | c1ccc(-c2nnc(-c3ccccn3)s2)nc1 | > 100000 | > 100
7 | CN1CCN(C2CCN(C(=O)Nc3cc(Oc4ccc(NC(=O)C5(C(=O)Nc6ccc(F)cc6)CC5)c(F)c4)ccn3)CC2)CC1 | 1430 | > 10
8 | CCN1CCN(C(=O)[C@@]2(C)CC[C@]3(C)CC[C@]4(C)C(=CC(=O)[C@@H]5[C@@]6(C)CC[C@H](OC7C[C@@H](O)[C@@H](O)C(C)O7)C(C)(C)[C@@H]6CC[C@]54C)[C@@H]3C2)CC1 (stereo partly specified) | 1700 | 6.36
9 | Nc1nn2cc(F)cnc2c1C(=O)Nc1cncc(F)c1N1CCC(C(=O)N2CCN(C3COC3)CC2)CC1 | 1510 | > 100

These compounds were tested on KM12 colon (assay: NCI tumour cell line growth inhibition, 48 h).

Row | SMILES | GI50 [nM] | TGI
10 | Oc1ccc(Nc2ncnc3c2sc2ncccc23)cc1 | 1730 | > 100 µM
11 | COc1cccc(CC(C)=C(c2ccc(OCCN(C)C)cc2)c2ccc(OCCN(C)C)cc2)c1 | 4080 | 8.77 µM
12 | COC(=O)COc1ccccc1/C=C1\N=C(c2ccccc2)N(c2cc(C(F)(F)F)ccc2Cl)C1=O | 41700 | > 100 µM
13 | C=C1C(=O)OC2CC(C)C(C(CC(C)=O)OC(C)=O)=CCC12 (stereo unspecified) | – | 37.2 µM
14 | CC(=O)OC1COC(Oc2c(C)c3c4c(c2O)[C@@H](C)CC[C@@H]4[C@@H](C)C[C@H]3C=C(C)C)C(O)C1OC(C)=O (stereo partly specified) | 17400 | 36.4 µM
15 | S=C(Nc1ccc(Cl)cc1)Nc1ccc(-c2nc3ccccc3s2)cc1 | 15000 | 49.1 µM
16 | O=c1/c(=C/c2ccccc2[N+](=O)[O-])sc2nnc(-c3ccco3)n12 | – | 33.4 µM
17 | COC(=O)C[C@](O)(CCCC(C)(C)O)C(=O)O[C@@H]1C(OC)=C[C@]23CCCN2CCc2cc4c(cc2[C@H]13)OCO4 | 32.6 | 0.885 µM and 0.182 µM
18 | C[N+](C)(C)CC1CCCc2ccccc2C1=O (stereo unspecified) | 5100 | 24.8 µM
19 | COc1cc(C(=O)N2CCN(C=O)C2=S)cc(OC)c1OC | 14400 | 29.5 µM
20 | Cn1c(I)c(C#CCO[Si](C)(C)C(C)(C)C)c(=O)[nH]c1=O | 25900 | > 61.2 µM
21 | CCCCC#CC1=C(Br)C(=O)OC1 | 1800 | 3.89 µM
22 | Cc1ccc(SC2c3ccc(C)cc3Oc3nc(N)c(C#N)c(N)c32)cc1 (stereo unspecified) | 2360 | 6.6 µM
23 | Cc1cn2c(=O)c3ncn(C4OC(CO)C(O)C4O)c3n(C)c2n1 (stereo unspecified) | – | > 100 µM
24 | O=C(Nc1ccc(Br)cc1F)c1cc(F)ccc1O | 2040 | 5.45 µM
25 | CC/C=C\C[C@H](O)C/C=C1/C(=O)C(Cl)=C[C@@H]1C/C=C\CCCC(=O)OC | 387 | 1.14 µM
26 | c1ccc(-c2nnc(-c3ccccn3)s2)nc1 | > 100000 | > 100 µM
27 | CN1CCN(C2CCN(C(=O)Nc3cc(Oc4ccc(NC(=O)C5(C(=O)Nc6ccc(F)cc6)CC5)c(F)c4)ccn3)CC2)CC1 | 292 | > 2.52 µM
28 | CCN1CCN(C(=O)[C@@]2(C)CC[C@]3(C)CC[C@]4(C)C(=CC(=O)[C@@H]5[C@@]6(C)CC[C@H](OC7C[C@@H](O)[C@@H](O)C(C)O7)C(C)(C)[C@@H]6CC[C@]54C)[C@@H]3C2)CC1 (stereo partly specified) | 2740 | 9.95 µM
29 | Nc1nn2cc(F)cnc2c1C(=O)Nc1cncc(F)c1N1CCC(C(=O)N2CCN(C3COC3)CC2)CC1 | 369 | > 100 µM

Each compound was assayed on LOX IMVI melanoma (assay: NCI tumour cell line growth inhibition, 48 h).

Row | SMILES | GI50 | TGI
30 | Oc1ccc(Nc2ncnc3c2sc2ncccc23)cc1 | 36.8 nM | > 100 µM
31 | COc1cccc(CC(C)=C(c2ccc(OCCN(C)C)cc2)c2ccc(OCCN(C)C)cc2)c1 | 604 nM | 1.16 µM
32 | COC(=O)COc1ccccc1/C=C1\N=C(c2ccccc2)N(c2cc(C(F)(F)F)ccc2Cl)C1=O | 24900 nM | 73.6 µM
33 | C=C1C(=O)OC2CC(C)C(C(CC(C)=O)OC(C)=O)=CCC12 (stereo unspecified) | – | 18.8 µM
34 | CC(=O)OC1COC(Oc2c(C)c3c4c(c2O)[C@@H](C)CC[C@@H]4[C@@H](C)C[C@H]3C=C(C)C)C(O)C1OC(C)=O (stereo partly specified) | 12000 nM | 25.7 µM
35 | S=C(Nc1ccc(Cl)cc1)Nc1ccc(-c2nc3ccccc3s2)cc1 | 24300 nM | > 100 µM
36 | O=c1/c(=C/c2ccccc2[N+](=O)[O-])sc2nnc(-c3ccco3)n12 | – | 31.8 µM
37 | COC(=O)C[C@](O)(CCCC(C)(C)O)C(=O)O[C@@H]1C(OC)=C[C@]23CCCN2CCc2cc4c(cc2[C@H]13)OCO4 | 12.9 nM | –
38 | C[N+](C)(C)CC1CCCc2ccccc2C1=O (stereo unspecified) | 1930 nM and 2230 nM | 4.78 µM and 5.93 µM
39 | COc1cc(C(=O)N2CCN(C=O)C2=S)cc(OC)c1OC | 16400 nM | 33.5 µM
40 | Cn1c(I)c(C#CCO[Si](C)(C)C(C)(C)C)c(=O)[nH]c1=O | 1830 nM | 4.42 µM
41 | CCCCC#CC1=C(Br)C(=O)OC1 | 318 nM | –
42 | Cc1ccc(SC2c3ccc(C)cc3Oc3nc(N)c(C#N)c(N)c32)cc1 (stereo unspecified) | 1590 nM | 3.14 µM
43 | Cc1cn2c(=O)c3ncn(C4OC(CO)C(O)C4O)c3n(C)c2n1 (stereo unspecified) | – | > 100 µM
44 | O=C(Nc1ccc(Br)cc1F)c1cc(F)ccc1O | 405 nM | 2.91 µM
45 | CC/C=C\C[C@H](O)C/C=C1/C(=O)C(Cl)=C[C@@H]1C/C=C\CCCC(=O)OC | 258 nM | 0.52 µM
46 | c1ccc(-c2nnc(-c3ccccn3)s2)nc1 | > 100000 nM | > 100 µM
47 | CN1CCN(C2CCN(C(=O)Nc3cc(Oc4ccc(NC(=O)C5(C(=O)Nc6ccc(F)cc6)CC5)c(F)c4)ccn3)CC2)CC1 | 1040 nM | > 10 µM
48 | CCN1CCN(C(=O)[C@@]2(C)CC[C@]3(C)CC[C@]4(C)C(=CC(=O)[C@@H]5[C@@]6(C)CC[C@H](OC7C[C@@H](O)[C@@H](O)C(C)O7)C(C)(C)[C@@H]6CC[C@]54C)[C@@H]3C2)CC1 (stereo partly specified) | 1010 nM | 2 µM
49 | Nc1nn2cc(F)cnc2c1C(=O)Nc1cncc(F)c1N1CCC(C(=O)N2CCN(C3COC3)CC2)CC1 | 285 nM | 1.55 µM

The compounds below were run on RXF 393 renal (assay: NCI tumour cell line growth inhibition, 48 h).

Row | SMILES | GI50 [nM] | TGI [µM]
50 | Oc1ccc(Nc2ncnc3c2sc2ncccc23)cc1 | 71 | 97
